“Also recorded” adds a separate entry of the source.
System: EPS sensitized monkeys
Test: Side effects (EPS) of BuTAC in EPS-sensitized monkeys
Assay type: in vivo, Cebus Apella
Experimental: Seven male Cebus Apella monkeys were used for evaluation the anti-amphetamine effect and the side effect profile of BuTAC. These monkeys were never before administered antipsychotics and had never experienced EPS, but had previously been administered amphetamine. For further evaluation of the EPS potential of BuTAC, the compound was tested in four male and female monkeys, all sensitized to drug-induced EPS by earlier chronic treatment with classical antipsychotic drugs.
The EPS sensitized monkeys were originally caught in the wild and had been at the laboratory for 13–20 years at the time of testing. The EPS naïve monkeys were born in captivity and had been at the laboratory for 7 years at the time of testing. They were between 11 and 18 years old, when the studies were initiated. The monkeys weighed between 2.5 kg (smallest female) and 5 kg (largest male). Their weight was monitored weekly and they were regularly checked by a veterinarian.
The rated primate behaviours and symptoms were the following: unrest, stereotypy, arousal, sedation and bradykinesia (Table 1). All monkeys were videotaped in 90-sec. sessions at specific time points throughout the test sessions. The videotapes were rated for amphetamine-induced behaviours and EPS by two experienced raters blinded to the treatment of the animal by means of a rating scale adapted from Peacock et al. and previously described by Andersen et al. (Table 1). In case of any discrepancy between the two ratings, the recording in question was re-evaluated and a rating agreed upon. The monkeys were videotaped at t = 30, 60, 90, 135, 150, 165, 180, 240, 300 min after BuTAC (or vehicle) administration. For the combination studies, d-amphetamine was injected at t = 120 min. Oral dyskinesia was measured in counts per 90 sec. The severity of other behaviours and symptoms were rated on a scale ranging from 0 (not present) to 6 (extreme presence).
For evaluation of anti-amphetamine effects, BuTAC was tested in doses of 0.001, 0.003, 0.01 mg/kg in combination with 0.5 mg/kg of d-amphetamine. BuTAC or peanut oil vehicle was injected s.c. at approximately 9 a.m. Pre-treatment time before s.c. injection of amphetamine was 120 min. For evaluation of side effects, BuTAC was tested alone at doses of 0.001, 0.003 and 0.01 mg/kg in antipsychotic-naïve monkeys and at doses of 0.003 and 0.01 mg/kg in monkeys sensitized to extrapyramidal side effects (EPS) by earlier long-term treatment with first generation antipsychotics. […] None of the animals were sacrificed.

[1] = BuTAC 0.01 mg/kg, four EPS sensitized monkeys

## CCCCSc1nsnc1[C@H]1CN2CCC[C@H]1C2 [BuTAC, (5R,6R)-6-(3-butylthio-1,2,5-thiadiazol-4-yl)-1-azabicyclo[3.2.1]octane]
BuTAC 0.003 mg/kg
  EPS: no EPS
[1]
  Mild bradykinesia (monkeys affected): Two
  Oral dyskinesia and dystonia: not observed; also recorded: no signs
  Sedation (monkeys affected): all four
Lower doses, 0.001- or 0.003 mg/kg of BuTAC (discussion)
  EPS: no signs of EPS

Reference: article PMC4399838, “Antipsychotic-Like Effect of the Muscarinic Acetylcholine Receptor Agonist BuTAC in Non-Human Primates” (PLoS ONE, 2015)
